Measurements: ChEMBL document CHEMBL1201862, “PubChem BioAssay data set” (2004)
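How tested: cells in 96-well plates exposed to compound for 48 hours at five concentrations. GI50 is the concentration that inhibits growth by half.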 Calls of active or inactive are those of the source. Rule as the data show it: active = GI50 up to about 1.1 µM and inactive = higher.

Tests used:
Test in all cases: DTP human tumour cell line panel, 48 h
IGROV-1 = test system: IGROV-1
SR = test system: SR
RXF 393 = test system: RXF 393
DU-145 = test system: DU-145
MDA-N = test system: MDA-N
OVCAR-3 = test system: OVCAR-3
HT-29 = test system: HT-29
U-251 = test system: U-251
A498 = test system: A498
PC-3 = test system: PC-3
CAKI-1 = test system: CAKI-1
SK-MEL-28 = test system: SK-MEL-28
HCT-116 = test system: HCT-116
SK-MEL-2 = test system: SK-MEL-2
NCI-H460 = test system: NCI-H460
HCT-15 = test system: HCT-15
SK-MEL-5 = test system: SK-MEL-5
NCI-H23 = test system: NCI-H23
COLO 205 = test system: COLO 205
MCF7 = test system: MCF7
NCI/ADR-RES = test system: NCI/ADR-RES
SK-OV-3 = test system: SK-OV-3
RPMI-8226 = test system: RPMI-8226
Hs-578T = test system: Hs-578T
OVCAR-8 = test system: OVCAR-8
SF-268 = test system: SF-268
UO-31 = test system: UO-31
ACHN = test system: ACHN
NCI-H226 = test system: NCI-H226
SW-620 = test system: SW-620
CCRF-CEM = test system: CCRF-CEM
SN12C = test system: SN12C
OVCAR-5 = test system: OVCAR-5
HOP-62 = test system: HOP-62
A549 = test system: A549
HL-60 = test system: HL-60
SNB-75 = test system: SNB-75
K562 = test system: K562
UACC-257 = test system: UACC-257
SF-295 = test system: SF-295
EKVX = test system: EKVX
NCI-H522 = test system: NCI-H522
KM12 = test system: KM12
786-0 = test system: 786-0
Malme-3M = test system: Malme-3M
SNB-19 = test system: SNB-19
OVCAR-4 = test system: OVCAR-4
TK-10 = test system: TK-10
MDA-MB-435 = test system: MDA-MB-435
HOP-92 = test system: HOP-92
SF-539 = test system: SF-539
MDA-MB-231 = test system: MDA-MB-231
M14 = test system: M14
LOX IMVI = test system: LOX IMVI
MOLT-4 = test system: MOLT-4
HCC 2998 = test system: HCC 2998
T47D = test system: T47D
UACC-62 = test system: UACC-62

Measured: GI50

COC1(C)OC[C@@]2(C)OC(C)C1(C)C2O[Si](C(C)C)(C(C)C)C(C)C (stereo partly drawn)
22.4 µM: HCT-15
inactive: IGROV-1 28.7 µM | SR 27.6 µM | RXF 393 27 µM | DU-145 38.7 µM | MDA-N 31.4 µM | OVCAR-3 20.9 µM | HT-29 28.7 µM | U-251 28.5 µM | A498 66.8 µM | PC-3 31.2 µM | CAKI-1 28.6 µM | SK-MEL-28 38.4 µM | HCT-116 29.2 µM | SK-MEL-2 21 µM | NCI-H460 23.7 µM | SK-MEL-5 20.9 µM | NCI-H23 25.7 µM | COLO 205 17.8 µM | MCF7 18.4 µM | NCI/ADR-RES 22.1 µM | SK-OV-3 24.4 µM | RPMI-8226 28.2 µM | Hs-578T 22.2 µM | OVCAR-8 36.8 µM | SF-268 31.8 µM | UO-31 45 µM | ACHN 25.2 µM | NCI-H226 19.5 µM | SW-620 33.5 µM | CCRF-CEM 25.1 µM | SN12C 23 µM | OVCAR-5 26.6 µM | HOP-62 28.6 µM | A549 32.2 µM | HL-60 17.5 µM | SNB-75 26.9 µM | K562 26.5 µM | UACC-257 19.9 µM | SF-295 19.9 µM | EKVX 24.9 µM | NCI-H522 27.9 µM | KM12 31.8 µM | 786-0 43.2 µM | Malme-3M 18 µM | SNB-19 48.9 µM | OVCAR-4 30.3 µM | TK-10 25.4 µM | MDA-MB-435 28.7 µM | HOP-92 24.9 µM | SF-539 33.1 µM | MDA-MB-231 26.4 µM | M14 37.6 µM | LOX IMVI 20.7 µM | MOLT-4 21.2 µM | HCC 2998 20.1 µM | T47D 27.6 µM | UACC-62 31 µM
